Where two headings read alike, the source gives them in different places.
Tests used:
[1] = system: rabbits' platelet-rich plasma; assay: Platelet aggregating activity using rabbits' platelet-rich plasma (method of Born et al.); format: cell-based, rabbit; details: Oryctolagus cuniculus, read-out: Platelet aggregating effect (EC50)
Method: The platelet aggregating activity of the compounds of the invention using rabbits' platelet-rich plasma was examined by the method of Born et al. [Born et al., J. Physiol., 162, 67-68 (1962)]. The EC50 values were calculated. As in Experiment 2, C16 PAF was used as a reference.

[2] = system: sarcoma 180; assay: Anti-tumor effect, survival of mice transplanted intraperitoneally with sarcoma 180 ascites cells; format: in vivo, mice (ICR/Jcl strain, female); details: for ILS (increase in lifespan) / No. surviving after 60 days: single dose, intraperitoneal; for ILS (increase in lifespan): (Tt-Tc) as percentage of Tc; for No. surviving after 60 days: survivors/number in test group; for mice kept alive at the end of 60 days: text summary of Table 8, dose not stated
Method: The test animals used were 8 week old female mice of the ICR/Jcl strain and were employed in groups of 5 mice for each test. Into each mouse were transplanted intraperitoneally 1×10^5 ascites cells of sarcoma 180. The day after transplantation, the test compound, dissolved in sterilized physiological saline, was administered in a single dose (in the amount shown in the following Table 8) intraperitoneally to the animals. A control group was given an intraperitoneal administration of sterilized physiological saline without any active compound. The results are reported in the following Table 8 as follows: Tt /Tc, where Tt is the mean survival time (in days) of the mice of a test group (i.e. to which one of the test compound was administered) and Tc is the mean survival time (in days) of the control group; ILS (%), i.e. the increase in lifespan, which is calculated as (Tt -Tc) expressed as a percentage of Tc; and number surviving after 60 days, in which the first number is the number of animals surviving, and the second number is the number in the test group.

[3] = rabbits' platelet-rich plasma, C16 PAF as reference

For CCCCCCCCCCCCCCCCOC[C@H]1OCCC[C@@H]1OP(=O)([O-])OCC[N+](C)(C)C (relative stereo) [Example 1, dl-(trans-2-Hexadecyloxymethyltetrahydropyran-3-yl) 2-(trimethylammonio)ethyl phosphate], the EC50 [1, 3] was greater than 100 µM, the “ILS (increase in lifespan)” value ([2]; 5 mg/kg) was 169% and the “No. surviving after 60 days” value ([2]; 5 mg/kg) was 2/5. For the same compound, the “ILS (increase in lifespan)” value ([2]; 10 mg/kg) was 136%, the “No. surviving after 60 days” value ([2]; 10 mg/kg) was 1/5 and the “mice kept alive at the end of 60 days” value [2] was 2 of the 5.
Compound CCCCCCCCCCCCCCCCOCC(COP(=O)([O-])OCC[N+](C)(C)C)OC(C)=O (stereo not shown) [C16 PAF, reference compound] has an EC50 ([1]; Platelet) of 0.009 µM.
CCCCCCCCCCCCCCCCO[C@@H]1CCCO[C@H]1COP(=O)([O-])OCC[N+](C)(C)C (relative stereo) [Example 3, dl-(trans-3-Hexadecyloxytetrahydropyran-2-yl)methyl 2-(trimethylammonio)ethyl phosphate] was tested, and the EC50 [1, 3] was greater than 400 µM, the “ILS (increase in lifespan)” value ([2]; 10 mg/kg) was 127% and the “No. surviving after 60 days” value ([2]; 10 mg/kg) was 1/5.
With CCCCCCCCCCCCCCCCOC[C@H]1OCCC[C@@H]1OP(=O)([O-])OCC[n+]1ccccc1 (relative stereo) [Example 6, dl-(trans-2-Hexadecyloxymethyltetrahydropyran-3-yl) 2-pyridinioethyl phosphate] the “ILS (increase in lifespan)” value ([2]; 20 mg/kg) was 155% and the “No. surviving after 60 days” value ([2]; 20 mg/kg) was 0/5.
With CCCCCCCCCCCCCCCCOC[C@H]1OCC[C@@H]1OP(=O)([O-])OCC[N+](C)(C)C (relative stereo) [Example 5, dl-(trans-2-Hexadecyloxymethyltetrahydrofuran-3-yl) 2-(trimethylammonio)ethyl phosphate] the EC50 [1, 3] was greater than 100 µM, the “ILS (increase in lifespan)” value ([2]; 5 mg/kg) was 157% and the “No. surviving after 60 days” value ([2]; 5 mg/kg) was 2/5. For the same compound, the “mice kept alive at the end of 60 days” value [2] was 2 of the 5.

Reference: patent US4794183A, “Certain tetrahydro-furan or pyran phosphate-ethylene or propylene ammonium derivatives” (Sankyo Company Limited, priority 1985, dated 1988)
